Experimental data as given in the kinase profiling compilation of Christmann-Franck et al. (2016).

How the values were obtained:
Test in all cases: KINOMEscan competition binding
Settings in all cases: compound 10.0 µM
AURKA (human) = AURKA (human) (UniProt O14965)
CHUK (human) = CHUK (human) (UniProt O15111)
MAPK10 (human) = MAPK10 (human) (UniProt P53779)
PTK6 (human) = PTK6 (human) (UniProt Q13882)
CHEK1 (human) = CHEK1 (human) (UniProt O14757)
MAPK12 (human) = MAPK12 (human) (UniProt P53778)
PAK3 (human) = PAK3 (human) (UniProt O75914)
PTK2B (human) = PTK2B (human) (UniProt Q14289)
TNK2 (human) = TNK2 (human) (UniProt Q07912)
CAMK2D (human) = CAMK2D (human) (UniProt Q13557)
DCLK3 (human) = DCLK3 (human) (UniProt Q9C098)
PRKAA1 (human) = PRKAA1 (human) (UniProt Q13131)
TAOK1 (human) = TAOK1 (human) (UniProt Q7L7X3)
IGF1R (human) = IGF1R (human) (UniProt P08069)
HCK (human) = HCK (human) (UniProt P08631)
TNIK (human) = TNIK (human) (UniProt Q9UKE5)
SRMS (human) = SRMS (human) (UniProt Q9H3Y6)
CSNK1A1L (human) = CSNK1A1L (human) (UniProt Q8N752)
STK32C (human) = STK32C (human) (UniProt Q86UX6)
CAMK4 (human) = CAMK4 (human) (UniProt Q16566)
INSRR (human) = INSRR (human) (UniProt P14616)
CDC2L2 (human) = CDC2L2 (human) (UniProt Q9UQ88)
MAPK8 (human) = MAPK8 (human) (UniProt P45983)
MINK1 (human) = MINK1 (human) (UniProt Q8N4C8)
MAPK11 (human) = MAPK11 (human) (UniProt Q15759)
FLT4 (human) = FLT4 (human) (UniProt P35916)
MST1R (human) = MST1R (human) (UniProt Q04912)
ZAP70 (human) = ZAP70 (human) (UniProt P43403)
MLTK (human) = MLTK (human) (UniProt Q9NYL2)
EPHA1 (human) = EPHA1 (human) (UniProt P21709)
PAK7 (human) = PAK7 (human) (UniProt Q9P286)
MAPK1 (human) = MAPK1 (human) (UniProt P28482)
ADCK4 (human) = ADCK4 (human) (UniProt Q96D53)
PIM3 (human) = PIM3 (human) (UniProt Q86V86)
PHKG2 (human) = PHKG2 (human) (UniProt P15735)
SRPK2 (human) = SRPK2 (human) (UniProt P78362)
MAP4K4 (human) = MAP4K4 (human) (UniProt O95819)
STK17B (human) = STK17B (human) (UniProt O94768)
MYLK2 (human) = MYLK2 (human) (UniProt Q9H1R3)
LTK (human) = LTK (human) (UniProt P29376)

MST1R (human), sequence (Q04912 whole entry, looked up): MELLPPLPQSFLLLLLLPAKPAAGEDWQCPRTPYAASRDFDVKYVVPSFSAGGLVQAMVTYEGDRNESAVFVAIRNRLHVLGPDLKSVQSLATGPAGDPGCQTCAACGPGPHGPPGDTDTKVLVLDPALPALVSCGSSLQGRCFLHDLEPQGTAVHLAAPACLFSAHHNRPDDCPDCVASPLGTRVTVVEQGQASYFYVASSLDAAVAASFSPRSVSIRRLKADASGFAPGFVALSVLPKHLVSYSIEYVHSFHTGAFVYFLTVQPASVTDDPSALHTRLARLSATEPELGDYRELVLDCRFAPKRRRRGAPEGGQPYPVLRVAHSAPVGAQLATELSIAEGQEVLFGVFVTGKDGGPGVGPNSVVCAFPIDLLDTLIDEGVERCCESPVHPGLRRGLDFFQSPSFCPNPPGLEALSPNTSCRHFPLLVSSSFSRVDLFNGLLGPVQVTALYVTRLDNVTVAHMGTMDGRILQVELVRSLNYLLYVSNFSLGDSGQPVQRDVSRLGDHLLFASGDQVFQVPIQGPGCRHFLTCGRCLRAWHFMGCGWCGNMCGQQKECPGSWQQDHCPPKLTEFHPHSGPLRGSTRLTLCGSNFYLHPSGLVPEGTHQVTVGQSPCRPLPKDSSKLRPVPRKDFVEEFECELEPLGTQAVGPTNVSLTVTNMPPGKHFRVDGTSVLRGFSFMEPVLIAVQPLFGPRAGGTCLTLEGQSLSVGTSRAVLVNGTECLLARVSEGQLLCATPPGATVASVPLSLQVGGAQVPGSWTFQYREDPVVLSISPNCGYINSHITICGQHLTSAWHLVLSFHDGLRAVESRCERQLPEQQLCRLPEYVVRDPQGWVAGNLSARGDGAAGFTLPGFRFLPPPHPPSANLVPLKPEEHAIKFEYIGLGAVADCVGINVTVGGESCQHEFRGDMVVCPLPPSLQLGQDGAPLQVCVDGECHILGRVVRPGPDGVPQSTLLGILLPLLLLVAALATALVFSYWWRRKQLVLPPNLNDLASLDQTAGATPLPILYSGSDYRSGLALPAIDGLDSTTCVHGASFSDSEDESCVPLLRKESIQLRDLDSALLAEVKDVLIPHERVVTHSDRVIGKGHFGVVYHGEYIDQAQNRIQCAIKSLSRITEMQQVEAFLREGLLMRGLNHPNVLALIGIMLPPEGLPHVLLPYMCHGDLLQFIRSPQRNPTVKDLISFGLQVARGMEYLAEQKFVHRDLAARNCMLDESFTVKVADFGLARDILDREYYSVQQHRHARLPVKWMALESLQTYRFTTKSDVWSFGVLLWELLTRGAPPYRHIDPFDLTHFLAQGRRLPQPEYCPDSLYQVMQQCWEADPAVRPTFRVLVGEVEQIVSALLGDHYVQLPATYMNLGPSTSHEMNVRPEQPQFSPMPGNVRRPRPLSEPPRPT
INSRR (human), sequence (P14616 whole entry, looked up): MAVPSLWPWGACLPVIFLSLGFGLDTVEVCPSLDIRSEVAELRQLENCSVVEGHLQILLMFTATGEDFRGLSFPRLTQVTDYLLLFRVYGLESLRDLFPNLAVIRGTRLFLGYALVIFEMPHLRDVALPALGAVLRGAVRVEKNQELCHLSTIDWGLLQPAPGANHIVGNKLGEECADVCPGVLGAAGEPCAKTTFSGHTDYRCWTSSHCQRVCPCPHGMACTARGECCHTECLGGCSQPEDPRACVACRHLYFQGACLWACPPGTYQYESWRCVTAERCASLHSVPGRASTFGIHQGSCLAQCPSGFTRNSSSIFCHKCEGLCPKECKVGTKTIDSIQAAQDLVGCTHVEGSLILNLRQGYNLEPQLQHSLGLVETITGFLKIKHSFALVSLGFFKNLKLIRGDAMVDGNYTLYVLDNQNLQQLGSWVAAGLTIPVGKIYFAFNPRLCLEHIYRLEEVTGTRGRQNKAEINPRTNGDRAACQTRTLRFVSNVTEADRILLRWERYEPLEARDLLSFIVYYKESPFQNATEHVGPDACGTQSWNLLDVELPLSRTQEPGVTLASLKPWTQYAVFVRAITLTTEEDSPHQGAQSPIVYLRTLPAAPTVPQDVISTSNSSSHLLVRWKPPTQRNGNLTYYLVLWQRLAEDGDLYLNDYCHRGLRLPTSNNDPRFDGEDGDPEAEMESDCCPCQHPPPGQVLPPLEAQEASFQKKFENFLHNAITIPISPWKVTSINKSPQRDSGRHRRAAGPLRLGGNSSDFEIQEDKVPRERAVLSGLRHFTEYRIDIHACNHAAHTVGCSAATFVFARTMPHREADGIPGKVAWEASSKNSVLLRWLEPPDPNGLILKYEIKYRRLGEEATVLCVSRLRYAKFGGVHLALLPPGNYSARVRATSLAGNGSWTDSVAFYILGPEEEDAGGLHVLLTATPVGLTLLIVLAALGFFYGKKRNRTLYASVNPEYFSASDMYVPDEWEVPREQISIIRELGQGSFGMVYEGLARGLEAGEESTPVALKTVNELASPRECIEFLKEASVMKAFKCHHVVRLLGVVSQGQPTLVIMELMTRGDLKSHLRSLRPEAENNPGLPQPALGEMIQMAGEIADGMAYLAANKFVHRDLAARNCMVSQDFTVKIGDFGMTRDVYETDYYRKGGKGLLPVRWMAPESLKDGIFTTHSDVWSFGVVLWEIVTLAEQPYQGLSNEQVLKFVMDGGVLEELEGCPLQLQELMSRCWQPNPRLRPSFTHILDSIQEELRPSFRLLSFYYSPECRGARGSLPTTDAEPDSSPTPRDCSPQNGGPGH
MAPK12 (human), sequence (P53778 whole entry, looked up): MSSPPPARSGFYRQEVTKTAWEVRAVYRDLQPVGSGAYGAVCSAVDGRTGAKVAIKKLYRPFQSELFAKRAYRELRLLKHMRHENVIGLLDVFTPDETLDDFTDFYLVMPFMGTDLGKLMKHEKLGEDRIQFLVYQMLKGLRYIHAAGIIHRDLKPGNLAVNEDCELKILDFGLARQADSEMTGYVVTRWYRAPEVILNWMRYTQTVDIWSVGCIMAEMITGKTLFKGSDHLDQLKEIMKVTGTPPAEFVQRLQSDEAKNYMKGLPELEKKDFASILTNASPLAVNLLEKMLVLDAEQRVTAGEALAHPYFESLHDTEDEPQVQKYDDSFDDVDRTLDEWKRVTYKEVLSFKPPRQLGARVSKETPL
MYLK2 (human), sequence (Q9H1R3 whole entry, looked up): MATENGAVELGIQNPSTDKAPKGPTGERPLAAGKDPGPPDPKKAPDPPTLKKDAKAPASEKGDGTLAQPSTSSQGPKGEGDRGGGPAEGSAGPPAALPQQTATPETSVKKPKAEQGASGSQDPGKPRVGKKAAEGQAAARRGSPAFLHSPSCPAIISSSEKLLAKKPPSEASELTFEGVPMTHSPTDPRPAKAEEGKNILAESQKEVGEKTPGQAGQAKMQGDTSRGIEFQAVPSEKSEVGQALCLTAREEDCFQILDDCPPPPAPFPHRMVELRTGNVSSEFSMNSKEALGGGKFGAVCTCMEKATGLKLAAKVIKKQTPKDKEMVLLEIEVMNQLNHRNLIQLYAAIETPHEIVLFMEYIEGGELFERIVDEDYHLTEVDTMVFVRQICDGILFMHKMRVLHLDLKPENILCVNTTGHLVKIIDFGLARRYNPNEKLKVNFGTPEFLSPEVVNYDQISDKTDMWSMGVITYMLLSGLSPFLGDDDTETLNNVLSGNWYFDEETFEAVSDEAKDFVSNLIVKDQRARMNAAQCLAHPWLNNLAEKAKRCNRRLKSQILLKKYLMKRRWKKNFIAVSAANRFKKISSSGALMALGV
ZAP70 (human), sequence (P43403 whole entry, looked up): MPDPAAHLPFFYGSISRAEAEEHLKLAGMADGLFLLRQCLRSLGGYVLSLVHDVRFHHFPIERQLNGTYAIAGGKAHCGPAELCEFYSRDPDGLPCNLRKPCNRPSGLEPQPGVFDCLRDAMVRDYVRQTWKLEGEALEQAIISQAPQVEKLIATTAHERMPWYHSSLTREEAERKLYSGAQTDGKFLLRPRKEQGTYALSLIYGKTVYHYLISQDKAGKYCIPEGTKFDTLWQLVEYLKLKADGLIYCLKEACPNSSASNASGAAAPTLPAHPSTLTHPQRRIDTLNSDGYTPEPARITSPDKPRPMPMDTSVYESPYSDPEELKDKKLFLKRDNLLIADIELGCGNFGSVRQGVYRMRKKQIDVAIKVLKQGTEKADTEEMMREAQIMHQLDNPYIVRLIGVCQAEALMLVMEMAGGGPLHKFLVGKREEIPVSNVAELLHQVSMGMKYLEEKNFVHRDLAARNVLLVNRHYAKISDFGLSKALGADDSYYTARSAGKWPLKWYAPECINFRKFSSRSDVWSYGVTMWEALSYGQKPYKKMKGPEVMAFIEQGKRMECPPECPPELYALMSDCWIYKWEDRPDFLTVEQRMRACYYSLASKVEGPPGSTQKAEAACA
MAPK10 (human), sequence (P53779 whole entry, looked up): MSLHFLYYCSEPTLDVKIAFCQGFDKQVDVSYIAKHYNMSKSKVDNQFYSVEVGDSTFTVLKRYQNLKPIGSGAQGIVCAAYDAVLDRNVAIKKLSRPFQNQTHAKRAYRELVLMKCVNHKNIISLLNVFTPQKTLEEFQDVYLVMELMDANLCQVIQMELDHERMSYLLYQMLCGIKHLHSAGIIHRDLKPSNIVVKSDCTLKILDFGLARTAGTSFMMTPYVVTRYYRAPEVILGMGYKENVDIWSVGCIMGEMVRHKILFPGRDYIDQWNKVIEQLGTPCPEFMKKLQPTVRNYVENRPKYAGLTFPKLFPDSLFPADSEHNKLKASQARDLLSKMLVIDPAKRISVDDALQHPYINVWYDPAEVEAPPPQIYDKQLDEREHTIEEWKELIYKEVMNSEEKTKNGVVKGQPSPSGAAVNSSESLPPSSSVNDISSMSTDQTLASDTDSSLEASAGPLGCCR

kinase still bound, per cent of control (AURKA (human))	kinase still bound, per cent of control (CHUK (human))	kinase still bound, per cent of control (MAPK10 (human))	kinase still bound, per cent of control (PTK6 (human))	kinase still bound, per cent of control (CHEK1 (human))	kinase still bound, per cent of control (MAPK12 (human))	kinase still bound, per cent of control (PAK3 (human))	kinase still bound, per cent of control (PTK2B (human))	kinase still bound, per cent of control (TNK2 (human))	kinase still bound, per cent of control (CAMK2D (human))	kinase still bound, per cent of control (DCLK3 (human))	kinase still bound, per cent of control (PRKAA1 (human))	kinase still bound, per cent of control (TAOK1 (human))	kinase still bound, per cent of control (IGF1R (human))	kinase still bound, per cent of control (HCK (human))	kinase still bound, per cent of control (TNIK (human))	kinase still bound, per cent of control (SRMS (human))	kinase still bound, per cent of control (CSNK1A1L (human))	kinase still bound, per cent of control (STK32C (human))	kinase still bound, per cent of control (CAMK4 (human))	SMILES	further results
100%	100%	100%	100%	100%	100%	100%	100%	100%	100%	100%	100%	100%	100%	100%	100%	100%	100%	100%	100%	Cc1ccc(C(=O)Nc2cccc(C(F)(F)F)c2)cc1Nc1cncc(C(N)=O)c1	kinase still bound, per cent of control (INSRR (human)): 100%; kinase still bound, per cent of control (CDC2L2 (human)): 100%; kinase still bound, per cent of control (MAPK8 (human)): 100%; kinase still bound, per cent of control (MINK1 (human)): 100%; kinase still bound, per cent of control (MAPK11 (human)): 100%; kinase still bound, per cent of control (FLT4 (human)): 100%; kinase still bound, per cent of control (MST1R (human)): 100%; kinase still bound, per cent of control (ZAP70 (human)): 100%; kinase still bound, per cent of control (MLTK (human)): 6.9%; kinase still bound, per cent of control (EPHA1 (human)): 100%; kinase still bound, per cent of control (PAK7 (human)): 100%; kinase still bound, per cent of control (MAPK1 (human)): 100%; kinase still bound, per cent of control (ADCK4 (human)): 100%; kinase still bound, per cent of control (PIM3 (human)): 100%; kinase still bound, per cent of control (PHKG2 (human)): 100%; kinase still bound, per cent of control (SRPK2 (human)): 100%; kinase still bound, per cent of control (MAP4K4 (human)): 100%; kinase still bound, per cent of control (STK17B (human)): 100%; kinase still bound, per cent of control (MYLK2 (human)): 100%; kinase still bound, per cent of control (LTK (human)): 100%
28%	100%	13%	100%	7%	100%	100%	25%	18%	100%	0.35%	28%	100%	7.4%	100%	100%	100%	100%	100%	100%	C=CC(=O)Nc1cccc(Oc2nc(Nc3ccc(N4CCN(C)CC4)cc3OC)ncc2Cl)c1	kinase still bound, per cent of control (INSRR (human)): 13%; kinase still bound, per cent of control (CDC2L2 (human)): 100%; kinase still bound, per cent of control (MAPK8 (human)): 17%; kinase still bound, per cent of control (MINK1 (human)): 100%; kinase still bound, per cent of control (MAPK11 (human)): 100%; kinase still bound, per cent of control (FLT4 (human)): 100%; kinase still bound, per cent of control (MST1R (human)): 100%; kinase still bound, per cent of control (ZAP70 (human)): 100%; kinase still bound, per cent of control (MLTK (human)): 100%; kinase still bound, per cent of control (EPHA1 (human)): 100%; kinase still bound, per cent of control (PAK7 (human)): 100%; kinase still bound, per cent of control (MAPK1 (human)): 100%; kinase still bound, per cent of control (ADCK4 (human)): 100%; kinase still bound, per cent of control (PIM3 (human)): 100%; kinase still bound, per cent of control (PHKG2 (human)): 3.5%; kinase still bound, per cent of control (SRPK2 (human)): 100%; kinase still bound, per cent of control (MAP4K4 (human)): 100%; kinase still bound, per cent of control (STK17B (human)): 100%; kinase still bound, per cent of control (MYLK2 (human)): 100%; kinase still bound, per cent of control (LTK (human)): 3.6%
100%	100%	100%	100%	100%	100%	100%	13%	100%	100%	100%	100%	100%	32%	100%	100%	100%	100%	100%	100%	COc1cc(C(=O)NC2CCN(C)CC2)ccc1Nc1ncc2c(n1)N(C1CCCC1)C(C)CC(=O)N2C (stereo not given)	kinase still bound, per cent of control (INSRR (human)): 26%; kinase still bound, per cent of control (CDC2L2 (human)): 100%; kinase still bound, per cent of control (MAPK8 (human)): 100%; kinase still bound, per cent of control (MINK1 (human)): 100%; kinase still bound, per cent of control (MAPK11 (human)): 100%; kinase still bound, per cent of control (FLT4 (human)): 100%; kinase still bound, per cent of control (MST1R (human)): 100%; kinase still bound, per cent of control (ZAP70 (human)): 100%; kinase still bound, per cent of control (MLTK (human)): 100%; kinase still bound, per cent of control (EPHA1 (human)): 100%; kinase still bound, per cent of control (PAK7 (human)): 100%; kinase still bound, per cent of control (MAPK1 (human)): 100%; kinase still bound, per cent of control (ADCK4 (human)): 100%; kinase still bound, per cent of control (PIM3 (human)): 100%; kinase still bound, per cent of control (PHKG2 (human)): 100%; kinase still bound, per cent of control (SRPK2 (human)): 100%; kinase still bound, per cent of control (MAP4K4 (human)): 100%; kinase still bound, per cent of control (STK17B (human)): 100%; kinase still bound, per cent of control (MYLK2 (human)): 100%; kinase still bound, per cent of control (LTK (human)): 100%
